Reference: patent US7138361B2, “Herbicidal heterocycles” (E. I. du Pont de Nemours and Company, priority 2000, dated 2006)

Legend:
Test in all cases: Test C preemergence
Format in all cases: in vivo
[1] = system: Sunflower; settings: Rate 125 g/ha, scale 0 to 100, 0 no effect, 100 complete control
[2] = system: yellow nutsedge (Cyperus esculentus); settings: for Plant response rating (0 to 100), Nutsedge: Rate 250 g/ha, visual evaluation after 12 to 14 days
Summary of the method: (§1)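 Pre- and postemergence treatments used a non-phytotoxic solvent/surfactant formulation; post-treated plants measured 2 to 18 cm. Greenhouse hold 12–14 d; % control estimated visually relative to controls.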

[3] = system: bermudagrass (Cynodon dactylon); settings: for Plant response rating (0 to 100 where 0 is no effect and 100 is complete control), Bermudagrass: Rate 250 g/ha, visual evaluation after 12 to 14 days
Summary of the method: as §1

[4] = system: woolly cupgrass (Eriochloa villosa); settings: for Plant response rating (0 to 100), Cupgrass, Woolly: Rate 250 g/ha, visual evaluation after 12 to 14 days
Summary of the method: as §1

[5] = system: pigweed (Amaranthus retroflexus); settings: for Plant response rating (0 to 100), Pigweed: Rate 250 g/ha, visual evaluation after 12 to 14 days
Summary of the method: as §1

[6] = system: morningglory (Ipomoea hederacea)
Summary of the method: as §1

[7] = system: kochia (Kochia scoparia); settings: for Plant response rating (0 to 100), Kochia: Rate 250 g/ha, visual evaluation after 12 to 14 days
Summary of the method: as §1

[8] = system: cocklebur (Xanthium strumarium)
Summary of the method: as §1

[9] = system: velvetleaf (Abutilon theophrasti); settings: for Plant response rating (0 to 100), Velvetleaf: Rate 250 g/ha, visual evaluation after 12 to 14 days
Summary of the method: as §1

[10] = system: Sunflower; settings: Rate 500 g/ha, scale 0 to 100
[11] = system: corn (Zea mays); settings: for Plant response rating (0 to 100), Corn: Rate 250 g/ha, visual evaluation after 12 to 14 days
Summary of the method: as §1

[12] = system: lambsquarters (Chenopodium album); settings: for Plant response rating (0 to 100), Lambsquarters: Rate 250 g/ha, visual evaluation after 12 to 14 days
Summary of the method: as §1

[13] = system: Surinam grass (Brachiaria decumbens); settings: for Plant response rating (0 to 100), Surinam grass: Rate 250 g/ha, visual evaluation after 12 to 14 days
Summary of the method: as §1

[14] = system: crabgrass (Digitaria sanguinalis); settings: for Plant response rating (0 to 100), Crabgrass: Rate 250 g/ha, visual evaluation after 12 to 14 days
Summary of the method: as §1

[15] = system: johnsongrass (Sorghum halepense); settings: for Plant response rating (0 to 100), Johnsongrass: Rate 250 g/ha, visual evaluation after 12 to 14 days
Summary of the method: as §1

[16] = system: common ragweed (Ambrosia elatior); settings: for Plant response rating (0 to 100), Ragweed, Common: Rate 250 g/ha, visual evaluation after 12 to 14 days
Summary of the method: as §1

[17] = system: goosegrass (Eleusine indica); settings: for Plant response rating (0 to 100), Goosegrass: Rate 250 g/ha, visual evaluation after 12 to 14 days
Summary of the method: as §1

[18] = system: Nightshade
[19] = system: soybean (Glycine max); settings: for Plant response rating (0 to 100), Soybean: Rate 250 g/ha, visual evaluation after 12 to 14 days
Summary of the method: as §1

[20] = system: giant foxtail (Setaria faberii)
Summary of the method: as §1

[21] = Preemergence, Rate 500 g/ha, scale 0 to 100
[22] = Rate 62 g/ha, scale 0 to 100, 0 no effect, 100 complete control
[23] = preemergence, Rate 125 g/ha, scale 0 to 100, 0 no effect, 100 complete control
[24] = preemergence, Rate 250 g/ha, visual evaluation after 12 to 14 days
[25] = Rate 125 g/ha, scale 0 to 100, 0 no effect, 100 complete control

O=C1C(n2ccc(C3CCCCC3)n2)OCN1c1cccc(C(F)(F)F)c1 (stereo not drawn) [Compound 51]
70: Plant response rating, Surinam grass [13, 21] | Plant response rating (0 to 100), Surinam grass ([13]; preemergence) | Plant response rating, Crabgrass [14, 22] | Plant response rating, Foxtail, Giant [20, 22]
30: Plant response rating, Nutsedge [2, 21] | Plant response rating (0 to 100), Nutsedge ([2]; preemergence) | Plant response rating, Pigweed [5, 21] | Plant response rating, Velvetleaf [9, 21] | Plant response rating (0 to 100), Velvetleaf ([9]; preemergence) | Plant response rating, Sunflower [10] | Plant response rating, Surinam grass [13, 22] | Plant response rating, Surinam grass [13, 23] | Plant response rating, Soybean [19, 21]
20: Plant response rating, Nutsedge [2, 22] | Plant response rating, Nutsedge [2, 23] | Plant response rating, Morningglory [6, 21] | Plant response rating, Johnsongrass [15, 22] | Plant response rating, Johnsongrass [15, 23] | Plant response rating (0 to 100), Soybean ([19]; preemergence)
50: Plant response rating, Cupgrass, Woolly [4, 22] | Plant response rating, Cupgrass, Woolly [4, 23] | Plant response rating (0 to 100), Kochia ([7]; preemergence) | Plant response rating, Kochia [7, 23]
80: Plant response rating (0 to 100), Cupgrass, Woolly ([4]; preemergence) | Plant response rating, Kochia [7, 21] | Plant response rating, Goosegrass [17, 22]
0: Plant response rating, Sunflower [1] | Plant response rating, Pigweed [5, 23] | Plant response rating, Morningglory [6, 23] | Plant response rating, Cocklebur [8, 21] | Plant response rating, Cocklebur [8, 22] | Plant response rating (0 to 100), Cocklebur [8, 24] | Plant response rating, Cocklebur [8, 23] | Plant response rating, Velvetleaf [9, 23] | Plant response rating, Corn [11, 21] | Plant response rating, Corn [11, 22] | Plant response rating (0 to 100), Corn ([11]; preemergence) | Plant response rating, Ragweed, Common [16, 21] | Plant response rating (0 to 100), Ragweed, Common ([16]; preemergence) | Plant response rating, Ragweed, Common [16, 23] | Plant response rating, Nightshade [18, 22] | Plant response rating, Nightshade [18, 25] | Plant response rating, Soybean [19, 23] | Plant response rating, Foxtail, Giant [20, 23]
40: Plant response rating, Kochia [7, 22]
60: Plant response rating, Lambsquarters [12, 22] | Plant response rating (0 to 100), Johnsongrass ([15]; preemergence) | Plant response rating, Nightshade ([18]; Rate 500 g/ha, scale 0 to 100)
90: Plant response rating, Bermudagrass [3, 22] | Plant response rating, Johnsongrass [15, 21] | Plant response rating, Goosegrass [17, 23]
100: Plant response rating, Bermudagrass [3, 21] | Plant response rating (0 to 100 where 0 is no effect and 100 is complete control), Bermudagrass ([3]; preemergence) | Plant response rating, Bermudagrass [3, 23] | Plant response rating, Cupgrass, Woolly [4, 21] | Plant response rating (0 to 100), Pigweed ([5]; preemergence) | Plant response rating, Lambsquarters [12, 21] | Plant response rating (0 to 100), Lambsquarters ([12]; preemergence) | Plant response rating, Lambsquarters [12, 23] | Plant response rating, Crabgrass [14, 21] | Plant response rating (0 to 100), Crabgrass ([14]; preemergence) | Plant response rating, Crabgrass [14, 23] | Plant response rating, Goosegrass [17, 21] | Plant response rating (0 to 100), Goosegrass ([17]; preemergence) | Plant response rating, Foxtail, Giant [20, 21] | Plant response rating (0 to 100), Foxtail, Giant [20, 24]

O=C1C(n2ccc(C3CCCCC3)n2)SCN1c1cccc(C(F)(F)F)c1 (stereo not drawn) [Compound 52]
70: Plant response rating, Foxtail, Giant [20, 23]
20: Plant response rating (0 to 100), Nutsedge ([2]; preemergence) | Plant response rating, Kochia [7, 23] | Plant response rating (0 to 100), Corn ([11]; preemergence) | Plant response rating, Surinam grass [13, 23] | Plant response rating (0 to 100), Soybean ([19]; preemergence) | Plant response rating, Soybean [19, 23]
50: Plant response rating, Cupgrass, Woolly [4, 23] | Plant response rating, Sunflower [10] | Plant response rating, Surinam grass [13, 21] | Plant response rating, Ragweed, Common [16, 21] | Plant response rating, Nightshade ([18]; Rate 500 g/ha, scale 0 to 100)
60: Plant response rating (0 to 100), Cupgrass, Woolly ([4]; preemergence) | Plant response rating, Kochia [7, 21] | Plant response rating, Soybean [19, 21] | Plant response rating, Foxtail, Giant [20, 22]
30: Plant response rating, Cupgrass, Woolly [4, 22] | Plant response rating (0 to 100), Pigweed ([5]; preemergence) | Plant response rating, Morningglory [6, 21] | Plant response rating (0 to 100), Kochia ([7]; preemergence) | Plant response rating, Cocklebur [8, 21] | Plant response rating (0 to 100), Surinam grass ([13]; preemergence) | Plant response rating, Nightshade [18, 22] | Plant response rating, Nightshade [18, 25] | Plant response rating, Foxtail, Giant [20, 21]
100: Plant response rating, Bermudagrass [3, 21] | Plant response rating, Bermudagrass [3, 22] | Plant response rating (0 to 100 where 0 is no effect and 100 is complete control), Bermudagrass ([3]; preemergence) | Plant response rating, Bermudagrass [3, 23] | Plant response rating, Cupgrass, Woolly [4, 21] | Plant response rating, Pigweed [5, 21] | Plant response rating, Lambsquarters [12, 21] | Plant response rating (0 to 100), Lambsquarters ([12]; preemergence) | Plant response rating, Crabgrass [14, 21] | Plant response rating (0 to 100), Crabgrass ([14]; preemergence) | Plant response rating, Crabgrass [14, 23] | Plant response rating, Johnsongrass [15, 21] | Plant response rating, Goosegrass [17, 21] | Plant response rating (0 to 100), Goosegrass ([17]; preemergence)
80: Plant response rating, Lambsquarters [12, 23]
0: Plant response rating, Sunflower [1] | Plant response rating, Nutsedge [2, 22] | Plant response rating, Nutsedge [2, 23] | Plant response rating, Pigweed [5, 23] | Plant response rating (0 to 100), Morningglory [6, 24] | Plant response rating, Morningglory [6, 23] | Plant response rating, Kochia [7, 22] | Plant response rating, Cocklebur [8, 22] | Plant response rating, Cocklebur [8, 23] | Plant response rating, Velvetleaf [9, 21] | Plant response rating (0 to 100), Velvetleaf ([9]; preemergence) | Plant response rating, Velvetleaf [9, 23] | Plant response rating, Corn [11, 22] | Plant response rating, Corn [11, 23] | Plant response rating, Lambsquarters [12, 22] | Plant response rating, Surinam grass [13, 22] | Plant response rating, Johnsongrass [15, 22] | Plant response rating, Ragweed, Common [16, 23]
90: Plant response rating, Crabgrass [14, 22] | Plant response rating (0 to 100), Johnsongrass ([15]; preemergence) | Plant response rating, Goosegrass [17, 22] | Plant response rating, Goosegrass [17, 23]
40: Plant response rating, Nutsedge [2, 21] | Plant response rating, Corn [11, 21] | Plant response rating, Johnsongrass [15, 23] | Plant response rating (0 to 100), Ragweed, Common ([16]; preemergence)
